Results taken from US12054466B2, “Compounds for the treatment of clostridium difficile infection” (University of Notre Dame du Lac, priority 2016, dated 2024).
Converted amounts (≈) assume the structure as drawn. Read-outs that look alike come from different tables or passages of the source.

Experiments:
Assay type in all cases: cell-based
C. difficile ATCC43598 = test: MIC, broth microdilution; settings: Clostridioides difficile, C. difficile ATCC43598
C. difficile ATCC43255 = test: MIC, broth microdilution; settings: Clostridioides difficile, C. difficile ATCC43255
C. difficile BAA-1870 = test: MIC, broth microdilution; settings: Clostridioides difficile, BAA1870, C. difficile BAA-1870 (NAP1, ribotype 27)
C. difficile BAA-1804 = test: MIC, broth microdilution; settings: Clostridioides difficile, BAA1804, C. difficile BAA-1804
C. difficile BAA-1803 = test: MIC, broth microdilution; settings: Clostridioides difficile, BAA1803, C. difficile BAA-1803 (NAP1, ribotype 027)
C. difficile BAA-1801 = test: MIC, broth microdilution; settings: Clostridioides difficile, BAA1801, C. difficile BAA-1801 (nontoxigenic)
C. difficile BAA-1812 = test: MIC, broth microdilution; settings: Clostridioides difficile, BAA1812, C. difficile BAA-1812
C. difficile BAA-1814 = test: MIC, broth microdilution; settings: Clostridioides difficile, BAA1814, C. difficile BAA-1814
C. difficile NR49310 = test: MIC, broth microdilution; settings: Clostridioides difficile, C. difficile NR49310 (NAP7, ribotype 078)
C. difficile NR49294 = test: MIC, broth microdilution; settings: Clostridioides difficile, C. difficile NR49294 (NAP4, ribotype 014)
C. difficile NR49305 = test: MIC, broth microdilution; settings: Clostridioides difficile, C. difficile NR49305 (NAP6, ribotype 002)
C. difficile NR49318 = test: MIC, broth microdilution; settings: Clostridioides difficile, C. difficile NR49318 (NAP11, ribotype 106)
C. difficile NR49292 = test: MIC, broth microdilution; settings: Clostridioides difficile, C. difficile NR49292 (NAP2, ribotype 001_072)
C. difficile NR49302 = test: MIC, broth microdilution; settings: Clostridioides difficile, C. difficile NR49302 (NAP4, ribotype 020)
[1] = test system: Bacteroides fragilis HM-709; test: MIC against common gut bacteria; settings: HM709; Bacteroides fragilis HM-709; read-out: MIC
Bacteroides fragilis = test: MIC against common gut bacteria; settings: read-out: MIC
Bacteroides ovatus = test: MIC against common gut bacteria; settings: read-out: MIC
Bacteroides vulgatus = test: MIC against common gut bacteria; settings: Phocaeicola vulgatus; Bacteroides vulgatus; read-out: MIC
Bacteroides eggerthii = test: MIC against common gut bacteria; settings: read-out: MIC
Bacteroides caccae = test: MIC against common gut bacteria; settings: read-out: MIC
[2] = test system: Bifidobacterium longum HM-846; test: MIC against common gut bacteria; settings: HM846; Bifidobacterium longum HM-846; read-out: MIC
[3] = test system: Corynebacterium sp. HM-784; test: MIC against common gut bacteria; settings: SP.HM784; Corynebacterium sp. HM-784; incubated aerobically; read-out: MIC
Protocol: Minimally-inhibitory concentrations. MICs for C. difficile strains and the common gut bacteria were determined using broth microdilution techniques as reported earlier using brucella broth supplemented with hemin and vitamin K or supplemented BHIS broth (Babakhani et al., J Antimicrob Chemother 2013, 68(3), 515). Lactobacillus MRS broth was used for lactobacillus strains. […] All incubations unless specified otherwise were carried out at 24 or 48 h at 37° C. in an anaerobic chamber (Whitley DG250 workstation, Microbiology International, Frederick, MD). Corynebacterium and lactobacillus species were incubated aerobically.

[4] = test system: Fusobacterium nucleatum HM-992; test: MIC against common gut bacteria; settings: HM992; Fusobacterium nucleatum HM-992; read-out: MIC
[5] = test system: Lactobacillus reuteri HM-102; test: MIC against common gut bacteria
[6] = test system: Lactobacillus gasseri HM-644; test: MIC against common gut bacteria
Veillonella sp. HM-49 = test: MIC against common gut bacteria
Eubacterium sp. HM-178 = test: MIC against common gut bacteria; settings: SP.HM178

For FC(F)(F)c1ccc(Oc2ccc(-c3noc(-c4ccc5[nH]ccc5c4)n3)cc2)cc1 [Compound 1], the MIC (C. difficile ATCC43598; 24 h, read-out: MIC at 24 h) was 1 µg/mL (≈ 2.37 µM), the MIC (C. difficile ATCC43598; 48 h, read-out: MIC at 48 h) was 1 µg/mL (≈ 2.37 µM) and the MIC (C. difficile ATCC43255; 24 h, read-out: MIC at 24 h) was 2 µg/mL (≈ 4.75 µM). For the same compound, the MIC (C. difficile ATCC43255; 48 h, read-out: MIC at 48 h) was 2 µg/mL (≈ 4.75 µM), the MIC (C. difficile BAA-1870; 24 h, read-out: MIC at 24 h) was 2 µg/mL (≈ 4.75 µM) and the MIC (C. difficile BAA-1870; 48 h, read-out: MIC at 48 h) was 4 µg/mL (≈ 9.49 µM). It also gave an MIC (C. difficile BAA-1804; 24 h, read-out: MIC at 24 h) of 2 µg/mL (≈ 4.75 µM), an MIC (C. difficile BAA-1804; 48 h, read-out: MIC at 48 h) of 2 µg/mL (≈ 4.75 µM) and an MIC (C. difficile BAA-1803; 24 h, read-out: MIC at 24 h) of 1 µg/mL (≈ 2.37 µM). For the same compound, the MIC (C. difficile BAA-1803; 48 h, read-out: MIC at 48 h) was 2 µg/mL (≈ 4.75 µM), the MIC (C. difficile BAA-1801; 24 h, read-out: MIC at 24 h) was 2 µg/mL (≈ 4.75 µM) and the MIC (C. difficile BAA-1801; 48 h, read-out: MIC at 48 h) was 4 µg/mL (≈ 9.49 µM). It also gave an MIC (C. difficile BAA-1812; 24 h, read-out: MIC at 24 h) of 2 µg/mL (≈ 4.75 µM), an MIC (C. difficile BAA-1812; 48 h, read-out: MIC at 48 h) of 2 µg/mL (≈ 4.75 µM) and an MIC (C. difficile BAA-1814; 24 h, read-out: MIC at 24 h) of 2 µg/mL (≈ 4.75 µM). For the same compound, the MIC (C. difficile BAA-1814; 48 h, read-out: MIC at 48 h) was 4 µg/mL (≈ 9.49 µM), the MIC (C. difficile NR49310; 24 h, read-out: MIC at 24 h) was 2 µg/mL (≈ 4.75 µM) and the MIC (C. difficile NR49310; 48 h, read-out: MIC at 48 h) was 2 µg/mL (≈ 4.75 µM). For the same compound, the MIC (C. difficile NR49294; 24 h, read-out: MIC at 24 h) was 1 µg/mL (≈ 2.37 µM), the MIC (C. difficile NR49294; 48 h, read-out: MIC at 48 h) was 1 µg/mL (≈ 2.37 µM) and the MIC (C. difficile NR49305; 24 h, read-out: MIC at 24 h) was 2 µg/mL (≈ 4.75 µM). For the same compound, the MIC (C. difficile NR49305; 48 h, read-out: MIC at 48 h) was 4 µg/mL (≈ 9.49 µM), the MIC (C. difficile NR49318; 24 h, read-out: MIC at 24 h) was 2 µg/mL (≈ 4.75 µM) and the MIC (C. difficile NR49318; 48 h, read-out: MIC at 48 h) was 2 µg/mL (≈ 4.75 µM). It also gave an MIC (C. difficile NR49292; 24 h, read-out: MIC at 24 h) of 1 µg/mL (≈ 2.37 µM), an MIC (C. difficile NR49292; 48 h, read-out: MIC at 48 h) of 2 µg/mL (≈ 4.75 µM) and an MIC (C. difficile NR49302; 24 h, read-out: MIC at 24 h) of 1 µg/mL (≈ 2.37 µM). It also gave an MIC (C. difficile NR49302; 48 h, read-out: MIC at 48 h) of 2 µg/mL (≈ 4.75 µM), an MIC [1] of 2 µg/mL (≈ 4.75 µM) and an MIC (Bacteroides fragilis) of 4 µg/mL (≈ 9.49 µM). For the same compound, the MIC (Bacteroides ovatus) was 4 µg/mL (≈ 9.49 µM), the MIC (Bacteroides vulgatus) was 2 µg/mL (≈ 4.75 µM) and the MIC (Bacteroides eggerthii) was 2 µg/mL (≈ 4.75 µM). The MIC (Bacteroides caccae) was 4 µg/mL (≈ 9.49 µM), the MIC [2] was 0.2 µg/mL (≈ 0.475 µM) and the MIC [3] was 2 µg/mL (≈ 4.75 µM). For the same compound, the MIC [4] was 1 µg/mL (≈ 2.37 µM), the MIC ([5]; Limosilactobacillus reuteri, HM102, Lactobacillus reuteri HM-102, read-out: MIC) was over 12 µg/mL and the “Activity against Lactobacillus reuteri” value ([5]; in words) was “not active”. For the same compound, the MIC ([6]; HM644, Lactobacillus gasseri HM-644, read-out: MIC) was over 12 µg/mL, the “Activity against Lactobacillus gasseri” value ([6]; in words) was “not active” and the MIC (Veillonella sp. HM-49; SP.HM49, Veillonella sp. HM-49, read-out: MIC) was over 12 µg/mL. For the same compound, the “Activity against Veillonella sp.” value (Veillonella sp. HM-49; in words) was “not active” and the MIC (Eubacterium sp. HM-178) was 2 µg/mL (≈ 4.75 µM).
